# According to patent US20050227941A1, “Sequestration of ass in the periphery in the absence of immunomodulating agent as a therapeutic approach for the treatment or prevention of beta-amyloid related diseases” (priority 2001, published 2005):
# What was measured:
# Assay type in all cases: in vivo
# [1] = biological target: T1, Aβ42 (Homo sapiens, UniProt P05067); test: Plasma Aβ42 level over time after a single injection of CG in PS/APP mice (ELISA); conditions: single injection 20 mg/kg
# T1 construct: from tissue; host or cells: brain (70% formic acid extract) and plasma of PS/APP transgenic mice
# T1 sequence (P05067 672-713 limits assumed): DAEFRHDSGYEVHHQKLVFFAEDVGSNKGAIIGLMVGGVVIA
# From the text: In this Example, as in Example 1, transgenic mice that develop AD-related amyloidosis, (i.e., PS/APP mice; See, L. Holcomb et al., 1998, Nature Med., 4(1):97-100) were used to assess the Aβ-binding compound chrysamine G (CG) in the peripheral sequestration of Aβ according to this invention, and to determine how the peripheral sequestration of Aβ by this compound affected brain Aβ levels. CG is known to bind Aβ strongly, and is less brain permeable than GM1.
# PS/APP mice at 10 weeks of age were injected once either with CG (number of mice=3, dosage: 20 mg/kg) or vehicle (phosphate buffered saline, number of mice=2) into the blood stream. […] […] The levels of Aβ peptides (Aβ40 or Aβ42) in the plasma were assessed by ELISA immunoassay. The levels of Aβ peptides in the periphery, i.e., plasma, of CG treated mice were compared with plasma Aβ levels in pretreatment mice at various time points.
# Changes in plasma load of Aβ42 after injection with CG were compared to the plasma Aβ level at pretreatment time points. As can be observed, there was a significant increase in plasma Aβ levels after injection of CG.
# [2] = biological target: T1, Aβ42; test: Plasma Aβ42 level after one week of daily CG injection in PS/APP mice (ELISA); conditions: 20 mg/kg ip every day for one week from 11 weeks of age, vehicle = 100 ± 9
# Experimental: (§1) Following a oneweek wash out period, the effect in brain AD level after continuous injection was examined. PS/APP mice were injected every day for one week into the periphery, with either CG (number of mice=3) (20 mg/kg, ip,) or vehicle (phosphate buffered saline) (number of mice=2), at 11 weeks of age, an age when amyloid pathology in the brain is not visible. The mice were sacrificed at 12 weeks of age, an age when amyloid deposition has been initiated and measurable levels of Aβ are present in the vehicle treated controls.
# (§2) The levels of Aβ in the peripheral blood were tested at the end of the administration period. The levels of Aβ peptides (e.g., Aβ40 or Aβ42) in the brain and plasma were assessed by ELISA assay. All of the Aβ in the brain (including Aβ in plaques) was extracted in 70% formic acid (FA). The levels of Aβ peptides in CG treated mice were compared with those of vehicle treated controls. […] This correlates with a statistically significant increase in peripheral Aβ40 and Aβ42 at the same time point.
# [3] = biological target: T2, Aβ40 (Homo sapiens, UniProt P05067); test: Brain Aβ40 (70% formic acid extract, ELISA) after one week of daily CG injection in PS/APP mice; conditions: 20 mg/kg ip every day for one week, sacrificed at 12 weeks, vehicle 926 ± 26
# T2 construct: from tissue; host or cells: brain (70% formic acid extract) and plasma of PS/APP transgenic mice
# T2 sequence (P05067 672-711 limits assumed): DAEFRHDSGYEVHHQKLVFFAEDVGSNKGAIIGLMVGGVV
# Experimental: as §1, §2
# [4] = biological target: T1, Aβ42; test: Brain Aβ42 (70% formic acid extract, ELISA) after one week of daily CG injection in PS/APP mice; conditions: 20 mg/kg ip every day for one week, sacrificed at 12 weeks, vehicle 1209 ± 292, not statistically significant
# Experimental: as §1, §2
# [5] = biological target: T2, Aβ40; test: Brain Abeta40 load (70% formic acid extract, ELISA) in PS/APP mice after peripheral GM1 or gelsolin; conditions: 1 week wash-out; for brain Abeta load, Abeta40: ip every two days for two weeks from 9 weeks of age, sacrificed at 12 weeks, FA-soluble brain fraction; for brain Abeta40 load compared with controls (vehicle): ip every two days for two weeks, % of vehicle
# Experimental: (§3) Transgenic mice that develop AD-related amyloidosis, (i.e., PS/APP mice; See, L. Holcomb et al., 1998, Nature Med., 4(1):97-100) were used for the studies described in this Example to assess how peripheral sequestration of Aβ affected brain Aβ levels. […] In addition, a second compound, gelsolin, which is too large to cross the blood/brain barrier (BBB), and is completely unrelated to GM1, but which is also known to bind Aβ with great avidity, was administered peripherally to confirm the universality of the mechanism.
# (§4) PS/APP mice were injected every two days for two weeks either with GM1 (number of mice=6) (15 mg/kg, ip,), with gelsolin (number of mice=3) (60 μg/kg, ip), or with vehicle, (phosphate buffered saline), (number=7), into the periphery at 9 weeks of age, an age when amyloid pathology in the brain is not visible. The mice were left for 1 week without injections (the “wash-out” period) and were then sacrificed at 12 weeks of age, an age when amyloid deposition has been initiated and measurable levels of Aβ are present in the vehicle treated controls.
# (§5) The levels of Aβ in the peripheral blood were tested at three time points during the drug administration period (i.e., after 1 week of injections; after two weeks of injections; and after the washout period). Data for the third time point only are shown. The levels of Aβ peptides (Aβ40 or Aβ42) in the brain and plasma were assessed by ELISA assay. All of the Aβ in the brain (including Aβ in plaques) was extracted in 70% formic acid (FA). The levels of Aβ peptides in GM1 or gelsolin treated mice were compared with those of vehicle treated controls.
# (§6) This correlates with a statistically significant increase in peripheral Aβ40 and Aβ42 at the same time point. For gelsolin, there was also a significant decrease in Aβ42, which correlated with a statistically significant increase in peripheral Aβ, thus confirming that the general principle of Aβ sequestration in the periphery being linked to reduction of Aβ in the CNS holds true for very different types of compounds that have the unifying property of being able to bind Aβ in the blood.
# [6] = biological target: T1, Aβ42; test: Brain Abeta42 load (70% formic acid extract, ELISA) in PS/APP mice after peripheral GM1 or gelsolin; conditions: 1 week wash-out; for brain Abeta load, Abeta42: ip every two days for two weeks from 9 weeks of age, sacrificed at 12 weeks, FA-soluble brain fraction; for brain Abeta42 load compared with controls (vehicle): ip every two days for two weeks, % of vehicle
# Experimental: as §3, §4, §5, §6
# [7] = biological target: T2, Aβ40; test: Plasma Abeta40 load (ELISA) in PS/APP mice after peripheral GM1 or gelsolin; conditions: ip every two days for two weeks, third time point (after wash-out), vehicle = 100 ± 21
# Experimental: as §3, §4
# (§7) The levels of Aβ in the peripheral blood were tested at three time points during the drug administration period (i.e., after 1 week of injections; after two weeks of injections; and after the washout period). […] The levels of Aβ peptides (Aβ40 or Aβ42) in the brain and plasma were assessed by ELISA assay. […]
# [8] = biological target: T1, Aβ42; test: Plasma Abeta42 load (ELISA) in PS/APP mice after peripheral GM1 or gelsolin; conditions: ip every two days for two weeks, third time point (after wash-out), vehicle = 100 ± 7
# Experimental: as §3, §4, §7
# [9] = system: Aβ; test: GM1 introduced directly into the brain of transgenic mice, Aβ levels
# Chain of Aβ (P05067 672-711 limits assumed): as above
# From the text: Neither GM1 nor gelsolin is known to cross into the brain from the periphery to any degree. […] This is the first time that such a result has been shown for a peripherally administered compound that is not an antibody. As such, the invention affords a significant advantage to the art by describing and promoting Aβ-binding compounds that require neither penetration of the brain nor the evocation of an immune response, which are potentially harmful and ineffective ways to modulate the risk of AD in human patients.
molecule,measurement,setting,value
"O=C([O-])c1cc(N=Nc2ccc(-c3ccc(N=Nc4ccc(O)c(C(=O)[O-])c4)cc3)cc2)ccc1O.[Na+].[Na+] [CG, 5,5′-[(1,1′ biphenyl)-4,4′-diylbis(azo)]bis [2-hydroxybenzoic acid]disodium salt]",plasma Aβ42 level,[1]; 2.5 hours after injection,110 ± 8 (p = 0.232) % of pre-treatment time point
same,plasma Aβ42 level,[1]; 5 hours after injection,125 ± 8 (p = 0.049) % of pre-treatment time point
same,plasma Aβ42 level,[1]; 7.5 hours after injection,125 ± 7 (p = 0.034) % of pre-treatment time point
same,plasma Aβ42 level,[1]; 24 hours after injection,112 ± 13 (p = 0.341) % of pre-treatment time point
same,plasma Aβ42 level,[1]; 48 hours after injection,111 ± 10 (p = 0.256) % of pre-treatment time point
same,plasma Aβ42 level,[2],331 ± 10 % of control
same,brain Aβ40,[3],541 ± 50 fmol/mL
same,brain Aβ42,[4],540 ± 271 fmol/mL
GM1,"brain Abeta load, Abeta40",[5],2147 ± 226 fmole/mg protein
same,brain Abeta40 load compared with controls (vehicle),[5],59%
same,"brain Abeta load, Abeta42",[6],2990 ± 410 fmole/mg protein
same,brain Abeta42 load compared with controls (vehicle),[6],73%
same,"plasma Abeta load, Abeta40",[7],177 ± 29 fmole/ml plasma
same,"plasma Abeta load, Abeta42",[8],124 ± 11 fmole/ml plasma
same,change in Aβ levels,[9],no change in Aβ levels was observed
gelsolin,"brain Abeta load, Abeta40",[5],3473 ± 673 fmole/mg protein
same,brain Abeta40 load compared with controls (vehicle),[5],96%
same,"brain Abeta load, Abeta42",[6],2473 ± 167 fmole/mg protein
same,brain Abeta42 load compared with controls (vehicle),[6],60%
same,"plasma Abeta load, Abeta40",[7],218 ± 87 fmole/ml plasma
same,"plasma Abeta load, Abeta42",[8],153 ± 35 fmole/ml plasma
